pIC50: −log10 of the molar value.

Data on two compounds can be found in US20110028479A1, “SUBSTITUTED PYRROLOTRIAZINES AND THEIR USE” (BAYER SCHERING PHARMA AKTIENGESELLSCHAFT, priority 2007, published 2011).

This assay addresses T1, Prostacyclin Receptors (IP Receptors) of Human Thrombocyte Membranes (Homo sapiens, UniProt P43119).
T1 construct: Thrombocyte membranes are obtained by centrifuging 50 ml of human blood; tissue Maco Pharma, Langen (buffy coats); host or cells: human thrombocyte (platelet) membranes prepared from human blood
Nature of the assay: Binding to prostacyclin receptors (IP receptors) of human thrombocyte membranes, 3H-Iloprost displacement. As to conditions: 3 nM 3H-Iloprost, 60 min, room temperature. The procedure: B-1. Studies of Binding to Prostacyclin Receptors (IP Receptors) of Human Thrombocyte Membranes
Thrombocyte membranes are obtained by centrifuging 50 ml of human blood (Buffy coats with CDP Stabilizer, from Maco Pharma, Langen) for 20 min at 160×g. Remove the supernatant (platelet-rich plasma, PRP) and then centrifuge again at 2000×g for 10 min at room temperature. Resuspend the sediment in 50 mM tris(hydroxymethyl)aminomethane, which has been adjusted to a pH of 7.4 with 1 N hydrochloric acid, and store at −20° C. overnight. On the next day, centrifuge the suspension at 80 000×g and 4° C. for 30 min. Discard the supernatant. […]
For the binding test, incubate 3 nM ^3H-Iloprost (592 GBq/mmol, from AmershamBioscience) for 60 min with 300-1000 μg/ml of human thrombocyte membranes per charge (max. 0.2 ml) in the presence of the test substances at room temperature. […] After adding Ultima Gold Scintillator, quantify the radioactivity bound to the membranes using a scintillation counter. The nonspecific binding is defined as radioactivity in the presence of 1 μM Iloprost (from Cayman Chemical, Ann Arbor) and is as a rule <25% of the bound total radioactivity. The binding data (IC50 values) are determined using the program GraphPad Prism Version 3.02.

T1 sequence (P43119 whole entry): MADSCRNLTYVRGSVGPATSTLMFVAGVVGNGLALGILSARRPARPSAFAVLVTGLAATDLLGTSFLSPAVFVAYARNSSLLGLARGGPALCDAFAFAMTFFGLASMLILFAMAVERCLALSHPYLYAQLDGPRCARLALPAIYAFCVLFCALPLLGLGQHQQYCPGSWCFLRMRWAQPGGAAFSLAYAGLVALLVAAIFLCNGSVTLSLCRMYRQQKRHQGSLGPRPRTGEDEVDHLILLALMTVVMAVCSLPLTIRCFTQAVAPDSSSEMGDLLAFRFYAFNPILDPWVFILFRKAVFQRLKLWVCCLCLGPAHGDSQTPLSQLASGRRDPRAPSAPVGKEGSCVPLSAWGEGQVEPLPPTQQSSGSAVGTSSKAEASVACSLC

`COc1ccc(-c2c(-c3ccccc3)cn3ncnc(O[C@H](C)CCCCC(=O)O)c23)cc1` [Example 4, (6R)-6-{[5-(4-methoxyphenyl)-6-phenylpyrrolo[2,1-f][1,2,4]triazin-4-yl]oxy}heptanoic acid]: the pIC50 is 6.65.
To `COc1ccc(-c2c(-c3ccccc3)cn3ncnc(NCCCCCC(=O)O)c23)cc1` [Example 3] belongs 6.20.

In general, pIC50 refers to the IC50 on a negative log10 scale, so that one unit is a factor of ten.
